The source of these data is paper PMC4948780, “PARP Inhibitors in Clinical Use Induce Genomic Instability in Normal Human Cells” (PLoS ONE, 2016).

Series [1] concerns MDA-MB-468. As to the kind of experiment: Clonogenic survival assay. Format: cell-based. The note with it: Homo sapiens, read-out: IC50 of olaparib, continuous exposure. The text has this:
(§1) Human mammary epithelial cell lines used included non-tumorigenic diploid MCF-10A, HMEC-hTERT and tumorigenic MDA-MB-468 (basal) and MCF-7 (luminal). […] Blood samples were obtained from normal donor participants. The participants provided written informed consent to IRB protocol #95–054 approved by the Institutional Review Board at MSKCC. The original signed consent is then sent to the research participant’s medical record and a copy of the consent is given to the participant. The EBV-transformed B-lymphocyte cell line (EBV-BL) was generated by transformation of peripheral blood mononuclear cells (PBMC) with the B95.8 strain of EBV, as previously described. Primary T cells were generated from PBMC from two normal donors by non-specific activation with phytohemagglutinin and cultured in RPMI1640 and human serum AB for 4–14 days before use. E14 mES cell line was provided by M. Hooper, Brca1^-/- 236.44 mES cell line was provided by B. H. Koller, Brca2^lex1/lex2 mES cell line was provided by P. Hasty and Lexicon Genetics. E14 wild-type, Brca1^-/- 236.44, and Brca2^lex1/lex2 mES cell lines were cultured in standard ES media. Brca1^-/- 236.44 cells express a BRCA1 peptide deleted for sequences encoded by exon 11 [52], while Brca2^lex1/lex2 cells express a BRCA2 peptide deleted for the terminal exon 27 [53]. […] Viable cells were scored by trypan blue exclusion.

Series [2] relates to HMEC-hTERT. As to the kind of experiment: Clonogenic survival assay. The format is cell-based. The note with it: Homo sapiens, read-out: IC50 of olaparib, continuous exposure.
Text: as §1

Series [3] deals with repair-proficient human cells. As to the kind of experiment: Chromatid-type aberrations, summary over the human cell types. The format is cell-based. How it is done: (§2) To prepare metaphase spreads, exponentially growing cells were treated with 0.1–0.3 μg/ml of colcemid for 1–6 hr. Cells were collected and incubated in hypotonic solution (0.56% KCl), fixed in methanol: acetic acid (3:1), spotted to slides and air-dried. To measure chromosomal aberrations, the slides were stained with 2% Giemsa/Sorensen’s buffer. To visualize SCEs, the doubling time for each cell type was determined. Cells were incubated with 10 μM BrdU for two cell cycles. After metaphase spreads were prepared, the slides were treated with 0.5 μg/ml Hoechst 33258. The slides were exposed to black light for 20–60 min, incubated at 60°C for 2 hr, and stained in 4–10% Giemsa/Sorensen’s buffer.

The test system of series [4] is WT E14 mES cells. As to the kind of experiment: Clonogenic survival assay, mES cells. The format is cell-based. Conditions: Mus musculus, read-out: IC50 (clonogenic survival). The text has this:
Human mammary epithelial cell lines used included non-tumorigenic diploid MCF-10A, HMEC-hTERT and tumorigenic MDA-MB-468 (basal) and MCF-7 (luminal). […] Blood samples were obtained from normal donor participants. The participants provided written informed consent to IRB protocol #95–054 approved by the Institutional Review Board at MSKCC. The original signed consent is then sent to the research participant’s medical record and a copy of the consent is given to the participant. The EBV-transformed B-lymphocyte cell line (EBV-BL) was generated by transformation of peripheral blood mononuclear cells (PBMC) with the B95.8 strain of EBV, as previously described. Primary T cells were generated from PBMC from two normal donors by non-specific activation with phytohemagglutinin and cultured in RPMI1640 and human serum AB for 4–14 days before use. E14 mES cell line was provided by M. Hooper, Brca1^-/- 236.44 mES cell line was provided by B. H. Koller, Brca2^lex1/lex2 mES cell line was provided by P. Hasty and Lexicon Genetics. E14 wild-type, Brca1^-/- 236.44, and Brca2^lex1/lex2 mES cell lines were cultured in standard ES media. Brca1^-/- 236.44 cells express a BRCA1 peptide deleted for sequences encoded by exon 11 [52], while Brca2^lex1/lex2 cells express a BRCA2 peptide deleted for the terminal exon 27 [53]. […] Veliparib and BSI-201 were purchased from Chemie Tek. The compounds were dissolved in DMSO and PBS. For clonogenic survival assays, MCF-10A (1000 cells), HMEC-hTERT (1000 cells), MDA-MB-468 (1500 cells) and mouse ES cell (2000 cells) were seeded, vehicle control or inhibitors were added at the indicated concentration 24 hours after seeding and changed every three days for continuous treatment. At 7–14 days, colonies were fixed with methanol and stained with Giemsa. For EBV-BL (6 × 10^6) and primary T cells (3.6 × 10^6) were continuously exposed to the indicated concentration of drug for 10 days at 0.6 × 10^6 cells/ml. Viable cells were scored by trypan blue exclusion.

The subject of series [5] is primary T cell 1. As to the kind of experiment: Sister chromatid exchange (SCE) assay, BrdU differential staining. Format: cell-based, human. The note with it: 1 μM, 99 hr.
Text: (§3) Human mammary epithelial cell lines used included non-tumorigenic diploid MCF-10A, HMEC-hTERT and tumorigenic MDA-MB-468 (basal) and MCF-7 (luminal). […] Blood samples were obtained from normal donor participants. The participants provided written informed consent to IRB protocol #95–054 approved by the Institutional Review Board at MSKCC. The original signed consent is then sent to the research participant’s medical record and a copy of the consent is given to the participant. The EBV-transformed B-lymphocyte cell line (EBV-BL) was generated by transformation of peripheral blood mononuclear cells (PBMC) with the B95.8 strain of EBV, as previously described. Primary T cells were generated from PBMC from two normal donors by non-specific activation with phytohemagglutinin and cultured in RPMI1640 and human serum AB for 4–14 days before use. E14 mES cell line was provided by M. Hooper, Brca1^-/- 236.44 mES cell line was provided by B. H. Koller, Brca2^lex1/lex2 mES cell line was provided by P. Hasty and Lexicon Genetics. E14 wild-type, Brca1^-/- 236.44, and Brca2^lex1/lex2 mES cell lines were cultured in standard ES media. Brca1^-/- 236.44 cells express a BRCA1 peptide deleted for sequences encoded by exon 11 [52], while Brca2^lex1/lex2 cells express a BRCA2 peptide deleted for the terminal exon 27 [53]. Olaparib was synthesized in the MSKCC Organic chemistry core facility. Veliparib and BSI-201 were purchased from Chemie Tek. The compounds were dissolved in DMSO and PBS. For clonogenic survival assays, MCF-10A (1000 cells), HMEC-hTERT (1000 cells), MDA-MB-468 (1500 cells) and mouse ES cell (2000 cells) were seeded, vehicle control or inhibitors were added at the indicated concentration 24 hours after seeding and changed every three days for continuous treatment. At 7–14 days, colonies were fixed with methanol and stained with Giemsa. For EBV-BL (6 × 10^6) and primary T cells (3.6 × 10^6) were continuously exposed to the indicated concentration of drug for 10 days at 0.6 × 10^6 cells/ml. Viable cells were scored by trypan blue exclusion.
as §2

Series [6] concerns EBV-BL. The description is as above. The format is cell-based, human.
Text: as §3, §2

Series [7] relates to MDA-MB-468. The description is as above. The format is cell-based, human. Conditions: 1 μM, 40 hr.
Text: as §3, §2

In series [8] the test system is HMEC-hTERT. Described as above. Conditions: 1 μM, 30.5 hr. The format is cell-based, human.
Text: as §3, §2

In series [9] the test system is MCF-7. Described as above. Format: cell-based, human. Conditions: 1 μM, 66.5 hr.
Text: as §3, §2

Series [10] deals with primary T cell 2. The series is described as above. Format: cell-based, human. The note with it: 1 μM, 70 hr.
Text: as §3, §2

Series [11] concerns MCF-10A. The series is described as above. The format is cell-based, human.
Text: as §3, §2

For series [12], the system named is repair-proficient human cells. In words: SCE assay, summary over the human cell types. Format: cell-based. The note with it: primary T cells; brief exposure.
Text: as §1, with “media.” for “media. Brca1^-/- 236.44 cells express a BRCA1 peptide deleted for sequences encoded by exon 11 [52], while Brca2^lex1/lex2 cells express a BRCA2 peptide deleted for the terminal exon 27 [53].”
To prepare metaphase spreads, exponentially growing cells were treated with 0.1–0.3 μg/ml of colcemid for 1–6 hr. […] To visualize SCEs, the doubling time for each cell type was determined. […]

For series [13], the system named is human cells. As to the kind of experiment: Olaparib cytotoxicity on continuous exposure, summary over cell types. The format is cell-based. Conditions: typical value over cell types.
Text: as §1

The structures appear in SMILES notation.

Take `O=C(c1cc(Cc2n[nH]c(=O)c3ccccc23)ccc1F)N1CCN(C(=O)C2CC2)CC1` [olaparib]: the concentration for half-maximal inhibition (IC50) was 600 nM in series [1], 5500 nM in series [2], 600 nM in series [4] and over 2000 nM in series [13]. Also, in [3] (clinically relevant doses (abstract)), the “increase of chromatid aberrations” value is 2-6 fold. The radial chromosomes identified in series [3] (olaparib-treated cells, all cell types (1 in untreated)) is 12. Besides, the “Mean no. SCE / chromosome ± SD” value is listed as 0.90 ± 0.20 in [5]; 1.13 ± 0.23 in [6] (1 μM, 87 hr); 1.97 ± 0.38 in [7]; 1.30 ± 0.22 in series [8]; 0.94 ± 0.21 in series [10]; 1.57 ± 0.24 in series [11] (1 μM, 30 hr). The “Mean no. SCE / metaphase ± SD” value in series [5] is recorded as 41.3 ± 9.3; in [6] (0.1 μM), 26.0 ± 6.4; in [6] (0.5 μM) it was 36.2 ± 7.4; in series [6] (1 μM, 87 hr), 51.6 ± 10.6; in series [7], 107.9 ± 21.0; in [8], 59.7 ± 10.0. Further, the “Mean no. SCE / metaphase ± SD” value was determined as 152.4 ± 21.9 in series [9]; 43.0 ± 9.7 in series [10]; 33.0 ± 4.9 in series [11] (0.1 μM); 52.2 ± 9.8 in series [11] (0.5 μM); 73.5 ± 10.9 in series [11] (1 μM, 30 hr). The “average SCEs per metaphase” value in series [12] was ~ 40.
